Data taken from patent publication US20160296590A1, “METHOD OF TREATING OR PREVENTING EPILEPSY OR SEIZURES USING ONE OR MORE NEURAL REGENERATION PEPTIDES” (CURONZ HOLDINGS COMPANY LIMITED, priority 2013, published 2016).
Entries after “also recorded” stand apart in the source; their conditions may differ. Where no end group is shown, it is not given here. [ ]: non-standard residue; d: D form. Aib = CC(C)(N)C(=O)O

Key:
Assay type in all cases: in vivo, rat
GABAA receptor α subunit = test: Immunohistochemistry of GABAA receptor α subunit expression after PTZ injection; settings: 20 μg/kg; somatosensory cortex and hippocampal CA1 area; P<0.001
Experimental: (§1) Adult male wistar rats (200-250g) were housed under controlled conditions (ambient temperature=22° C., humidity=40%; 12-h light/dark cycle) with food and water ad libitum. Animals were age- and weight-matched and randomly received by intra peritoneal injection NRP2945 in saline (5, 10 or 20 μg/kg) or saline alone (control) thirty minutes before the i.p. injection of pentylenetetrazol (PTZ; 50 mg/kg dissolved in 0.9% saline). All experiments were carried out according to the protocol approved by the Animal Ethics Committee of Shefa Neuroscience Center, Tehran, Iran.
(§2) Animals were deeply anaesthetized with chloral hydrate and perfused transcardially with 200 ml of saline followed by 600 ml of 4% PFA solution. The brains were extracted and kept in 4% PFA for at least 4 days at 4° C. and were then processed for immunohistochemistry studies. The serial (8 μm) coronal sections were prepared. Three paraffin embedded sections in 1.8 to 3.3 mm posterior to the bregma from each animal were cleared and rehydrated through a series of xylol and alcohol and washed with phosphate buffered saline (PBS) three times and incubated in blockage solution (3% H2O2/methanol for 5 min). After washing in PBS, slides were boiled in sodium citrate buffer at 95° C, for 10 min. […]

[1] = system: PTZ-induced epileptiform burst discharges; test: Electrocorticogram (ECoG) recording of PTZ-induced epileptiform burst discharges
Experimental: Adult male wistar rats (200-250g) were housed under controlled conditions (ambient temperature=22° C., humidity=40%; 12-h light/dark cycle) with food and water ad libitum. Animals were age- and weight-matched and randomly received by intra peritoneal injection NRP2945 in saline (5, 10 or 20 μg/kg) or saline alone (control) thirty minutes before the i.p. injection of pentylenetetrazol (PTZ; 50 mg/kg dissolved in 0.9% saline). All experiments were carried out according to the protocol approved by the Animal Ethics Committee of Shefa Neuroscience Center, Tehran, Iran. Animals were anaesthetized with chloral hydrate 3.5% (dissolved in normal 0.9% saline; Sigma-Aldrich) and the head of each rat was placed in a stereotaxical instrument (Stoelting Instruments, USA). Epidural recording electrodes were stereotaxically implanted above the left and right somatosensory cortices (3.0 mm posteriorly to Bregma and 3.0 mm laterally from the midline) under continuous chloral hydrate anesthesia. The reference electrode is located at the nasal bone. ECoG was recorded via monopolar silver electrodes connected to an amplifier (EXT-02 F, NPI, Germany; with band-pass filters at […], sampling rate 10 kHz) and stored by a digital oscilloscope. ECoG recordings were performed for 30 minutes after receiving saline or NRP2945 (5, 10, 20 μg/kg) and 30 minutes after the injection of PTZ. Latency, duration, amplitude, and frequency of epileptic spikes activity were calculated using AxoScope 10 software (Axon Instruments, CA, USA).

normal neurons = test: Volume-weighted mean volume of normal neurons (stereology) after PTZ-induced seizures; set-up: Mean volume of normal neurons CA1 / Mean volume of normal neurons CA3 / Mean volume of normal neurons Cortex: unit not given here; settings: for Mean volume of normal neurons CA1: hippocampal CA1; for Mean volume of normal neurons CA1 / Mean volume of normal neurons CA3 / Mean volume of normal neurons Cortex: rats; for Mean volume of normal neurons CA3: hippocampal CA3; for Mean volume of normal neurons Cortex: somatosensory cortex
Experimental: as §1
The volume-weighted mean volume of normal neurons was calculated directly by point-sampled intercept on 10 uniform systematically and randomly sampled microscopic fields of the pyramidal layers of hippocampal areas CA1 and CA3as well as the somatosensory cortex. A lattice of test points on lines was superimposed randomly onto the traced nuclear profiles in each particular field. Nuclei of neurons were marked and two isotropic lines from randomly selected directions were centred on this neuron and superimposed. The intersection of each line with the outer surface of the respective neuron's soma was marked. These lines produced point-sampled intercepts, the lengths of which were measured and cubed. The mean was multiplied by […], and finally all intercepts were averaged to give an estimate of the volume-weighted mean neuronal volume. For quantitative analysis of dark neurons, the physical dissector method was used. Ten pairs of sections, with […] distance, were collected from each brain. The first section of each pair was designated as the reference and the second one was used for comparison. On each pair of sections, at least 10 microscopic fields were selected by uniform systematic-random sampling in every area of interest. Using the unbiased frame and physical dissector counting rule, the counting of dark neurons in each field was carried out (Jafarian et al., 2010).
Animals were deeply anaesthetised with chloral hydrate (3.5%; Sigma-Aldrich) and perfused transcardially with 200 ml of saline followed by 200 ml of a solution containing 1% paraformaldehyde (PFA). After perfusion, all rats were decapitated and the brains were removed. The brains were kept in 1% PFA for at least 10 days and were then processed for histological studies as follows. The brain was cut into transverse sections of 8 µm thickness. Sections were stained with toluidine blue. The sections were selected by uniform systematic random sampling in every area of interest. Different areas (hippocampal CA1 and CA3 areas and somatosensory neocortex) were studied under a light microscope (BX51, Olympus, Japan) equipped with a digital camera. Digital photographs were taken using a 40x oil immersion objective lens (Olympus, Japan). The magnification was calculated using an objective micrometer.

PTZ-induced seizures = test: Behavioural test of PTZ-induced seizure attacks; settings: for Behavioural test Severity: seizure score 0-6
Experimental: Adult male wistar rats (200-250g) were housed under controlled conditions (ambient temperature=22° C., humidity=40%; 12-h light/dark cycle) with food and water ad libitum. Animals were age- and weight-matched and randomly received by intra peritoneal injection NRP2945 in saline (5, 10 or 20 μg/kg) or saline alone (control) thirty minutes before the i.p. injection of pentylenetetrazol (PTZ; 50 mg/kg dissolved in 0.9% saline). All experiments were carried out according to the protocol approved by the Animal Ethics Committee of Shefa Neuroscience Center, Tehran, Iran. After each PTZ-injection, the convulsive behaviour of each rat was assessed for 30 min, and resultant seizures were scored as follows: 0=normal behaviour; 1=immobility; 2=rigid posture; 3=repetitive scratching, circling, or head bobbing; 4=forelimb clonus, rearing, and falling; 5=repeated occurrence of level four behaviour, 6=severe tonic-clonic behaviour or status epilepticus (Karimzadeh et al., 2013). Latency of seizure onset was defined as the average length of time in seconds between PTZ administration an initially detectable and seizure. A generalized seizure was characterised by symmetric forelimb and hind limb tonus, followed by hind limb clonus and subsequent jumping activity. Because some animals occasionally had more than one seizure, the seizure duration was assessed as the sum of durations of these multiple seizures.

GAD-65 = test: Immunohistochemistry of GAD-65 expression after PTZ injection; settings: 20 μg/kg; somatosensory cortex, CA1 and CA3 hippocampal areas; P<0.001
Experimental: as §1, §2

dark neurons = test: Dark neuron count (toluidine blue, physical dissector) after PTZ-induced seizures; settings: hippocampal CA1 and CA3 areas and somatosensory cortex, 5, 10 and 20 μg/kg
Experimental: as §1
The volume-weighted mean volume of normal neurons was calculated directly by point-sampled intercept on 10 uniform systematically and randomly sampled microscopic fields of the pyramidal layers of hippocampal areas CA1 and CA3as well as the somatosensory cortex. A lattice of test points on lines was superimposed randomly onto the traced nuclear profiles in each particular field. […] These lines produced point-sampled intercepts, the lengths of which were measured and cubed. […] For quantitative analysis of dark neurons, the physical dissector method was used. […]
Animals were deeply anaesthetised with chloral hydrate (3.5%; Sigma-Aldrich) and perfused transcardially with 200 ml of saline followed by 200 ml of a solution containing 1% paraformaldehyde (PFA). […] The magnification was calculated using an objective micrometer.

GABAA receptor β subunit = test: Immunohistochemistry of GABAA receptor β subunit expression after PTZ injection; settings: 20 μg/kg; only CA1 hippocampal region; P<0.001
Experimental: as §1, §2

[2] = 5 μg/kg i.p. 30 min before PTZ, anaesthetized rats
[3] = 10 μg/kg i.p. 30 min before PTZ, anaesthetized rats
[4] = 5 μg/kg i.p. 30 min before PTZ, rats
[5] = 10 μg/kg i.p. 30 min before PTZ, rats

GlyArgArgAlaAlaProGlyArgAibGlyGly (GRRAAPGR[Aib]GG) [NRP2945, 11-residue neural regeneration peptide, derived from amino acid position 40-50 of human CAPS2]
expression of GABAA receptor α subunit compared to control (GABAA receptor α subunit): higher expression; also recorded: significant enhancement | ECoG Amplitude [1, 2]: 1.1 ± 0.04 mV | ECoG Duration [1, 2]: 60 ± 1.2 s | ECoG Frequency [1, 2]: 4.7 ± 0.3 per min | ECoG Latency [1, 2]: 326 ± 24 s | ECoG Amplitude [1, 3]: 0.84 ± 0.1 mV | ECoG Duration [1, 3]: 60 ± 2.1 s | ECoG Frequency [1, 3]: 6.67 ± 0.9 per min | ECoG Latency [1, 3]: 417 ± 37 s | development of epileptiform field potentials ([1]; 20 μg/kg i.p. 30 min before PTZ, anaesthetized rats): completely prevented | amplitude of epileptiform field potentials compared to control ([1]; 5 and 10 μg/kg i.p., P≦0.001): significantly smaller; also recorded: decreased | duration of epileptiform field potentials compared to control ([1]; 5 and 10 μg/kg i.p., P≦0.001): significantly shorter; also recorded: decreased | latency time to onset of first spike waves compared to control ([1]; 5 and 10 μg/kg i.p., P≦0.001): increased | repetition rate (frequency) of epileptiform field potentials compared to control ([1]; 5 and 10 μg/kg i.p., P≦0.001): significantly lower; also recorded: decreased | mean volume of normal neurons after PTZ-induced seizures compared to control (normal neurons; 5 μg/kg): did not affect | mean volume-weighted volume of normal neurons compared to control (normal neurons; 10 and 20 μg/kg, CA1, CA3 and somatosensory cortex, P≦0.001): higher; also recorded: larger | Mean volume of normal neurons CA1 (normal neurons; 5 μg/kg i.p. before PTZ): 380.9 ± 7.1 | Mean volume of normal neurons CA1 (normal neurons; 10 μg/kg i.p. before PTZ): 413.1 ± 4.4 | Mean volume of normal neurons CA1 (normal neurons; 20 μg/kg i.p. before PTZ): 451.9 ± 5.5 | Mean volume of normal neurons CA3 (normal neurons; 5 μg/kg i.p. before PTZ): 387.9 ± 3.2 | Mean volume of normal neurons CA3 (normal neurons; 10 μg/kg i.p. before PTZ): 438.6 ± 5.6 | Mean volume of normal neurons CA3 (normal neurons; 20 μg/kg i.p. before PTZ): 474.1 ± 5.1 | Mean volume of normal neurons Cortex (normal neurons; 5 μg/kg i.p. before PTZ): 340.8 ± 3.1 | Mean volume of normal neurons Cortex (normal neurons; 10 μg/kg i.p. before PTZ): 395.7 ± 6.1 | Mean volume of normal neurons Cortex (normal neurons; 20 μg/kg i.p. before PTZ): 387.9 ± 7.5 | Behavioural test Latency (PTZ-induced seizures; 5 μg/kg i.p. 30 min before PTZ 50 mg/kg i.p., rats): 230.2 ± 10.6 s | Behavioural test Duration (PTZ-induced seizures; [4]): 35.83 ± 5.9 s | Behavioural test Severity (PTZ-induced seizures; [4]): 3.67 ± 0.21 | Behavioural test Latency (PTZ-induced seizures; 10 μg/kg i.p. 30 min before PTZ 50 mg/kg i.p., rats): 150.2 ± 7.4 s | Behavioural test Duration (PTZ-induced seizures; [5]): 37.67 ± 7.3 s | Behavioural test Severity (PTZ-induced seizures; [5]): 3.67 ± 0.21 | PTZ-induced seizures or convulsions (PTZ-induced seizures; 20 μg/kg i.p. 30 min before PTZ, rats): completely prevented | latency of seizure attacks compared to control (PTZ-induced seizures; 5 and 10 μg/kg i.p.): not affecting | severity of seizure attacks compared to control (PTZ-induced seizures; 5 and 10 μg/kg i.p.): not affecting | total duration of seizure attacks compared to control (PTZ-induced seizures; 5 and 10 μg/kg i.p., p<0.05, n=12): reduced | expression of GAD-65 immunoreactive neurons compared to control (GAD-65): significantly higher; also recorded: significant increase | Density (production) of dark neurons in comparison to saline (dark neurons): significantly decreased | Density (production) of dark neurons in comparison to saline (dark neurons; listed as NRP 2945): inhibited | expression of GABAA receptor β subunit compared to control (GABAA receptor β subunit): higher; also recorded: enhanced
